Results reported in a melting point compilation (Tetko et al.; mined from patent text by program, amines drawn as free bases though some values may be those of a salt).

`N[C@@H]1CN(c2c(F)cc3c(=O)c(C(=O)O)cn(C4CC4)c3c2F)C[C@@H]1n1ccnn1` (relative stereo) gave a melting point of 245 to 247 °C. With `COCc1cn(-c2ccccc2)nc1OCc1ccc(OCc2nc(-c3ccco3)oc2C)c(OC)c1` the melting point was 121 to 122 °C. In the case of `O=C(O)C1Oc2ccc(Cl)cc2C(C2CCCCC2)(C2CCCCC2)O1` (configuration not stated), the melting point is reported as 208 °C. Compound `NC(=O)N(O)Cc1ccoc1` has a melting point of 125 to 128 °C. With `O=c1oc(-c2cccc(-c3ccccc3)c2)cc(O)c1Sc1ccc2ccccc2c1` the melting point was 183 to 185 °C. `CC(C)(C)OC(=O)N1CCC(CCNC(=O)c2noc(-c3ccc(C#N)cc3)n2)CC1` gave a melting point of 138 to 139 °C. For `Cc1nn2ccccc2c1C1=NNC(=O)CC1C` (configuration not stated), the melting point was 146 to 147 °C. `O=C(Cn1c(=O)n(-c2ccc3c(c2)OCO3)c2ncccc21)N1CCOCC1` gave a melting point of 212 to 213 °C. Compound `Nc1nc(N)nc(-c2cncc(Br)c2)n1` has a melting point of over 260 °C. In the case of `CCOc1ccc(-c2nc(-c3ccc(OC4OC(COC(C)=O)C(OC(C)=O)C(OC(C)=O)C4OC(C)=O)cc3)cs2)cc1OCC` (configuration not stated), the melting point is reported as 180 to 181 °C. For `COc1ccccc1C(=O)c1cccc2c1ccn2C`, the melting point was 74 °C. Compound `Nc1cnc2c(c1)[nH]c(=O)n2-c1ccccc1F` has a melting point of 220 to 221 °C. `Cc1ccccc1-c1cn2ccc3ccccc3c2n1` gave a melting point of 93 °C. Work on `COc1ccc(C(=O)Oc2ccc(C(=O)O)cc2F)cc1C12CC3CC(CC(C3)C1)C2` yielded a melting point of 258 to 260 °C. With `Cc1ccc(C2c3c(C)c(N4CCN(c5cc(C)cc(C)c5)CC4)c(C)c(C)c3OC2(C)C)cc1` (configuration not stated) the melting point was 147 to 149 °C. `O=C(CSc1ccccc1)c1ccc2[nH]c3ncc(Cl)cc3c2c1` showed a melting point of 238 to 239 °C. `CN(C)CCNC(=O)N1CCN(c2ccccc2)CC1` gave a melting point of 88 to 90 °C. `CO[C@@]1(C)O[C@@H]2[C@H](OCc3ccccc3)OC[C@H](OC(=O)c3ccc([N+](=O)[O-])cc3)[C@H]2O[C@]1(C)OC` gave a melting point of 58 to 59 °C. `C=CCC(Cc1ccc([N+](=O)[O-])cc1)NC(=O)OCc1ccccc1` (configuration not stated) showed a melting point of 94 to 95 °C. With `C#CCCN1CC=C(c2ccccc2)CC1` the melting point was 36.5 to 37.5 °C. `CCC(=O)C(C#N)Cc1cc(Cl)cc(Cl)c1` (configuration not stated) gave a melting point of 59 to 60 °C. For `CCOC(=O)C=Cc1nc(-c2ccc(=O)n(C(C)C)n2)c(-c2ccccc2)nc1N`, the melting point was 233 to 236 °C. Work on `O=S1(=O)CCN2C=CC=C(c3ccc(Oc4ccc(O)cc4)cc3)C2=N1` yielded a melting point of 289 to 290 °C. Compound `COc1cc(Cc2ccccc2)c(O)c2c1C(C)(C)CCC2(C)C` has a melting point of 80 °C. Compound `CCCc1c(OCCCCCOc2ccc(C(=O)c3cccc(C(=O)O)c3)cc2CCC(=O)O)ccc2c1OCCC2=O` has a melting point of 122 to 128 °C. For `COCOc1ccccc1-c1cc(-c2cccc(C(=O)NC3CCCN(C(=O)OC(C)(C)C)C3)c2)c(C#N)c(NC(=O)c2cccs2)n1` (configuration not stated), the melting point was 167 to 168 °C. For `CC(C)C[C@@H](C=NNC(N)=O)NC(=O)[C@H](Cc1c[nH]cn1)NC(=O)C(CCCCc1ccccc1)Cc1cccc2ccccc12` (some centres not stated), the melting point was 108 to 114 °C. For `C=C(OC(=O)c1ccc(C(C)(C)C)cc1)c1ccc(OC)cc1`, the melting point was 87 to 89 °C. Work on `Cc1cccc(-c2nc3cccnn3c2-c2ccnc(N(C(=O)C3CC3)C(=O)C3CC3)c2)c1` yielded a melting point of 173 to 175 °C. `N#CSc1c(C(F)(F)F)nn(-c2c(Cl)cc(C(F)(F)F)cc2Cl)c1N` gave a melting point of 49 to 50 °C. For `O=C(Nc1nnn(CC2CC2)n1)C(c1ccccc1)c1ccccc1`, the melting point was 147 to 148 °C. Work on `NS(=O)(=O)c1cc2c(s1)SC(CCO)CN2` (configuration not stated) yielded a melting point of 145 to 147 °C. In the case of `CNC(=O)c1cc2c(nc(C)n2C)c2c1CCC1(Cc3ccccc3C1)N2`, the melting point is reported as 237 to 238 °C. In the case of `CCC(CC)Oc1nc(C)nc(Oc2c(C)cc(C)cc2C)c1C`, the melting point is reported as 93.5 to 95.5 °C. `COc1cc(OC)c2c(=O)[nH]c(-c3cc(C)nc(C)c3)nc2c1` gave a melting point of 291 to 292 °C. Work on `O=C(C=Cc1ccc(Cl)cc1)C(CC=Cc1ccccc1)c1ccccc1` (configuration not stated) yielded a melting point of 92 to 95 °C. `CCOC(=O)c1cn(-c2cnsn2)c2cc(F)c(F)cc2c1=O` gave a melting point of 189 to 192 °C.
